One assay concerns the target Human plasma kallikrein (Homo sapiens (Human), UniProt P03952). In words: Kallikrein Assay (fluorogenic substrate Acetyl-K-P-R-AFC). Type of assay: biochemical. As to conditions: Plasma Kallikrein (PKal). In a few lines:
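Ki is derived from IC50 with the Cheng-Prusoff equation, and IC50 from the inflection point of a four-parameter logistic curve. The rate of AFC release is read with 0.5 nM purified enzyme and […] substrate at room temperature or 37 °C.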

For a further assay, the target named is human Factor XIa (Homo sapiens (Human), UniProt P03951). In words: Factor XIa Assay (fluorogenic substrate GPR-AFC). It is filed as biochemical. The note with it: Factor XIa (FXIa).

Each structure is given as a SMILES string.

Sequence of human Factor XIa (P03951 388-625 limits assumed): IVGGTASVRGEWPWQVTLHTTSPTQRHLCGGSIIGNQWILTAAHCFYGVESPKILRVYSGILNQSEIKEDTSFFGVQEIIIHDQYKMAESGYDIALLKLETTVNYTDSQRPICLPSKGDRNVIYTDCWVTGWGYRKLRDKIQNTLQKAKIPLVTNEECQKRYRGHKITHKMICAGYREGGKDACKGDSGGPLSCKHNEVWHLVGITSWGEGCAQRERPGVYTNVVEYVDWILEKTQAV
Sequence of human Factor XIa (P03951 19-387 partner limits assumed): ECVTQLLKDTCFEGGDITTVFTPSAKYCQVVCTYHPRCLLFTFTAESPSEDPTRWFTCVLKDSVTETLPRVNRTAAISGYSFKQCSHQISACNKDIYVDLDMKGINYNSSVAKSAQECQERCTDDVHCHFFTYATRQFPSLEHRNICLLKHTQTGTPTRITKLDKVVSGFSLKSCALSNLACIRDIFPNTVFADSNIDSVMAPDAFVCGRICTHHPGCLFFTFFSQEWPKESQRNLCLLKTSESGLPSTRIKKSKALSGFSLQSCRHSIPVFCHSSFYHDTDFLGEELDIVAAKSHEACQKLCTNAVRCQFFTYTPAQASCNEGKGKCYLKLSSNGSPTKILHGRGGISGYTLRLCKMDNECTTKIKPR
Sequence of Human plasma kallikrein (P03952 391-638): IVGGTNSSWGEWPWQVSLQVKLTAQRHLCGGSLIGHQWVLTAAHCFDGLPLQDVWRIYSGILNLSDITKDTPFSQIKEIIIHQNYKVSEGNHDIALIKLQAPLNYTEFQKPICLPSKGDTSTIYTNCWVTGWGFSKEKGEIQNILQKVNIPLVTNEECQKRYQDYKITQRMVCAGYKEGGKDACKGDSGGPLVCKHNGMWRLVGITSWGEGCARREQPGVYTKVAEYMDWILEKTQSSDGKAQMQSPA
Sequence of Human plasma kallikrein (P03952 20-390 partner): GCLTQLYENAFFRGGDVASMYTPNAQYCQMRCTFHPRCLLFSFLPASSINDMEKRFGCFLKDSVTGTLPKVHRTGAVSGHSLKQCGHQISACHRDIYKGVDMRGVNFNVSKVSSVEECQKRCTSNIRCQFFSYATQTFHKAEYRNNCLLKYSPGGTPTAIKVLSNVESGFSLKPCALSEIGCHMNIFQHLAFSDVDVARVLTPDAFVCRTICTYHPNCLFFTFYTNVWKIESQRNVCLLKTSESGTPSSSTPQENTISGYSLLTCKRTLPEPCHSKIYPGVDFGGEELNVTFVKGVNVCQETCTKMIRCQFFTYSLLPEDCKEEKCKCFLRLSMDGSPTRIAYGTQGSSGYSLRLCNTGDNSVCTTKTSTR

Consider `COc1nc(N2C[C@H]3C[C@H]3C2=O)ncc1Cn1cc(NC(=O)c2nc(-c3c(C(F)F)ccc(Cl)c3F)cnc2C)cn1` [Example 95, 6-(3-Chloro-6-(difluoromethyl)-2-fluorophenyl)-N-(1-((4-methoxy-2-((1R, 5S)-2-oxo-3-azabicyclo[3.1.0]hexan-3-yl)pyrimidin-5-yl)methyl)-1H-pyrazol-4-yl)-3-methylpyrazine-2-carboxamide], for which the results for the IC50 at Human plasma kallikrein and against human Factor XIa were 14.3 nM and 4590 nM, respectively.

As for `C[C@@H](c1cnc(N2C[C@H]3C[C@H]3C2=O)nc1N)n1cc(NC(=O)c2cncc(-c3c(C(F)F)ccc(Cl)c3F)n2)cn1` [Example 171, N-(1-((S)-1-(4-Amino-2-((1R,5S)-2-oxo-3-azabicyclo[3.1.0]hexan-3-yl)pyrimidin-5-yl)ethyl)-1H-pyrazol-4-yl)-6-(3-chloro-6-(difluoromethyl)-2-fluorophenyl)pyrazine-2-carboxamide], the IC50 is 713 nM on Human plasma kallikrein and more than 10000 nM against human Factor XIa.

Regarding `Cc1nc(C(C)n2cc(NC(=O)c3cncc(-c4c(OC(F)F)ccc(Cl)c4F)n3)cn2)cnc1N1C[C@H]2C[C@H]2C1=O` (single isomer, unassigned) [Example 16, 6-(3-Chloro-6-(difluoromethoxy)-2-fluorophenyl)-N-(1-((S or R)-1-(6-methyl-5-((1R,5S)-2-oxo-3-azabicyclo[3.1.0]hexan-3-yl)pyrazin-2-yl)ethyl)-1H-pyrazol-4-yl)pyrazine-2-carboxamide], the IC50 against Human plasma kallikrein came to 1.9 nM; against human Factor XIa it was 772 nM.

Turning to `Cc1ncc(-c2c(C(F)F)ccc(Cl)c2F)nc1C(=O)Nc1cnn(C(C)c2cnc(N3C[C@H]4C[C@H]4C3=O)c(OC(F)F)c2C)c1` (single isomer, unassigned) [Example 224], the IC50 was 66.1 nM against Human plasma kallikrein and more than 10000 nM at human Factor XIa.

As for `Cc1ncc(-c2c(C(F)F)ccc(Cl)c2F)nc1C(=O)Nc1cnn(C(C)c2cnc(N3C[C@H]4C[C@H]4C3=O)c(C)n2)c1` (single isomer, unassigned) [Example 14, 6-(3-Chloro-6-(difluoromethyl)-2-fluorophenyl)-3-methyl-N-(1-((S or R)-1-(6-methyl-5-((1R,5S)-2-oxo-3-azabicyclo[3.1.0]hexan-3-yl)pyrazin-2-yl)ethyl)-1H-pyrazol-4-yl)pyrazine-2-carboxamide], the IC50 against Human plasma kallikrein stood at 0.8 nM; at human Factor XIa, 550 nM.

In the case of `Cc1nc(N2C[C@H]3C[C@H]3C2=O)ncc1C(C)n1cc(NC(=O)c2nc(-c3c(C(F)F)ccc(Cl)c3F)cnc2CO)cn1` (single isomer, unassigned) [Example 195, 6-(3-Chloro-6-(difluoromethyl)-2-fluorophenyl)-3-(hydroxymethyl)-N-(1-((R or S)-1-(4-methyl-2-((1R,5S)-2-oxo-3-azabicyclo[3.1.0]hexan-3-yl)pyrimidin-5-yl)ethyl)-1H-pyrazol-4-yl)pyrazine-2-carboxamide], the IC50 against Human plasma kallikrein turned out to be 18.2 nM; against human Factor XIa, 765 nM.

Turning to `Cc1cc(C(C)n2cc(NC(=O)c3nc(-c4c(C#N)ccc(Cl)c4F)cnc3C)cn2)nnc1N1C[C@H]2C[C@H]2C1=O` (single isomer, unassigned) [Example 236, 6-(3-Chloro-6-cyano-2-fluorophenyl)-3-methyl-N-(1-((R or S)-1-(5-methyl-6-((1R,5S)-2-oxo-3-azabicyclo[3.1.0]hexan-3-yl)pyridazin-3-yl)ethyl)-1H-pyrazol-4-yl)pyrazine-2-carboxamide], the IC50 came out at 0.7 nM against Human plasma kallikrein and 750 nM on human Factor XIa.

With `Cc1c(Cn2cc(NC(=O)c3cncc(-c4c(C(F)F)ccc(Cl)c4F)n3)cn2)ccc(N2C[C@H]3C[C@H]3C2=O)c1C` [Example 48], the IC50 on Human plasma kallikrein is 0.6 nM; at human Factor XIa, more than 10000 nM.

As for `Cc1nc(N2C[C@H]3C[C@H]3C2=O)cnc1C(C)n1cc(NC(=O)c2cncc(-c3c(C(F)F)ccc(Cl)c3F)n2)cn1` (single isomer, unassigned) [Example 53, 6-(3-Chloro-6-(difluoromethyl)-2-fluorophenyl)-N-(1-((S or R)-1-(3-methyl-5-((1R,5S)-2-oxo-3-azabicyclo[3.1.0]hexan-3-yl)pyrazin-2-yl)ethyl)-1H-pyrazol-4-yl)pyrazine-2-carboxamide], the IC50 came to 38.3 nM against Human plasma kallikrein and 6630 nM against human Factor XIa.

For `Cc1c(C(C)n2cc(NC(=O)c3cncc(-c4c(OC(F)F)ccc(Cl)c4F)n3)cn2)cnc(N2C[C@H]3C[C@H]3C2=O)c1F` (single isomer, unassigned) [Example 133, 6-(3-Chloro-6-(difluoromethoxy)-2-fluorophenyl)-N-(1-((S or R)-1-(5-fluoro-4-methyl-6-((1R,5S)-2-oxo-3-azabicyclo[3.1.0]hexan-3-yl)pyridin-3-yl)ethyl)-1i-pyrazol-4-yl)pyrazine-2-carboxamide], the IC50 is 0.6 nM against Human plasma kallikrein and 510 nM at human Factor XIa.

On to `CC(c1cnc(N2CC3CC3C2=O)nc1)n1cc(NC(=O)c2cncc(-c3c(C(F)(F)F)ccc(Cl)c3F)n2)cn1` (single isomer, unassigned) [Example 70, 6-(3-Chloro-2-fluoro-6-(trifluoromethyl)phenyl)-N-(1-((S orR)-1-(2-((1R,5S or 1S,5R)-2-oxo-3-azabicyclo[3.1.0]hexan-3-yl)pyrimidin-5-yl)ethyl)-1H-pyrazol-4-yl)pyrazine-2-carboxamide], for which the half-maximal inhibitory concentration (IC50) against Human plasma kallikrein was 18.6 nM; at human Factor XIa, 7680 nM.

As for `Cc1ncc(-c2c(C(F)F)ccc(Cl)c2F)nc1C(=O)Nc1cnn(C(C)c2ncc(N3C[C@H]4C[C@H]4C3=O)c(C)c2F)c1` (single isomer, unassigned) [Example 244, 6-(3-Chloro-6-(difluoromethyl)-2-fluorophenyl)-N-(1-((R or S)-1-(3-fluoro-4-methyl-5-((1R,5S)-2-oxo-3-azabicyclo[3.1.0]hexan-3-yl)pyridin-2-yl)ethyl)-1H-pyrazol-4-yl)-3-methylpyrazine-2-carboxamide], the IC50 was 46.8 nM against Human plasma kallikrein and more than 10000 nM against human Factor XIa.

Take `Cc1nc(C(C)n2cc(NC(=O)c3cncc(-c4c(C(F)F)ccc(Cl)c4F)n3)cn2)ccc1N1C[C@H]2C[C@H]2C1=O` (single isomer, unassigned) [Example 61, 6-(3-Chloro-6-(difluoromethyl)-2-fluorophenyl)-N-(1-((R or S)-1-(6-methyl-5-((1R,5S)-2-oxo-3-azabicyclo[3.1.0]hexan-3-yl)pyridin-2-yl)ethyl)-1H-pyrazol-4-yl)pyrazine-2-carboxamide]: the IC50 against Human plasma kallikrein is 0.7 nM; against human Factor XIa it was more than 10000 nM.

For the compound `Cc1ncc(-c2c(C(F)F)ccc(Cl)c2F)nc1C(=O)Nc1cn(Cc2cnc(N3C[C@H]4C[C@H]4C3=O)c(C)n2)nn1` [Example 185, 6-(3-Chloro-6-(difluoromethyl)-2-fluorophenyl)-3-methyl-N-(1-((6-methyl-5-((1R,5S)-2-oxo-3-azabicyclo[3.1.0]hexan-3-yl)pyrazin-2-yl)methyl)-1H-1,2,3-triazol-4-yl)pyrazine-2-carboxamide], the IC50 on Human plasma kallikrein is 2.4 nM; against human Factor XIa it was 3180 nM.

As for `Cc1cc(C(C)n2cc(NC(=O)c3cncc(-c4c(C(F)F)ccc(Cl)c4F)n3)cn2)cnc1N1C[C@H]2C[C@H]2C1=O` (single isomer, unassigned) [Example 66, 6-(3-Chloro-6-(difluoromethyl)-2-fluorophenyl)-N-(1-((S or R)-1-(5-methyl-6-((1R,5S)-2-oxo-3-azabicyclo[3.1.0]hexan-3-yl)pyridin-3-yl)ethyl)-1H-pyrazol-4-yl)pyrazine-2-carboxamide], the values for the IC50 on Human plasma kallikrein and against human Factor XIa were 0.6 nM and 1630 nM, respectively.

For `Cc1nc(C(C)n2cc(NC(=O)c3nc(-c4c(C(F)F)ccc(Cl)c4F)cnc3C(F)F)cn2)cnc1N1C[C@H]2C[C@H]2C1=O` (single isomer, unassigned) [Example 100, 6-(3-Chloro-6-(difluoromethyl)-2-fluorophenyl)-3-(difluoromethyl)-N-(1-((S or R)-1-(6-methyl-5-((1R,5S)-2-oxo-3-azabicyclo[3.1.0]hexan-3-yl)pyrazin-2-yl)ethyl)-1H-pyrazol-4-yl)pyrazine-2-carboxamide], the IC50 turned out to be 1.7 nM against Human plasma kallikrein and 2000 nM at human Factor XIa.

Regarding `Cc1nc([C@@H](C)n2cc(NC(=O)c3nc(-c4c(C(F)F)ccc(Cl)c4F)cnc3C)cn2)ncc1N1C[C@H]2C[C@H]2C1=O` [Example 2, 6-(3-Chloro-6-(difluoromethyl)-2-fluorophenyl)-3-methyl-N-(1-((R)-1-(4-methyl-5-((1R,5S)-2-oxo-3-azabicyclo[3.1.0]hexan-3-yl)pyrimidin-2-yl)ethyl)-1H-pyrazol-4-yl)pyrazine-2-carboxamide], the figures for the IC50 on Human plasma kallikrein and against human Factor XIa were 11.9 nM and more than 10000 nM, respectively.

Turning to `Cc1ncc(-c2c(C(F)F)ccc(Cl)c2F)nc1C(=O)Nc1cnn(C2(c3cnc(N4C[C@H]5C[C@H]5C4=O)c(C)n3)CC2)c1` [Example 220, 6-(3-Chloro-6-(difluoromethyl)-2-fluorophenyl)-3-methyl-N-(1-(1-(6-methyl-5-((1R,5S)-2-oxo-3-azabicyclo[3.1.0]hexan-3-yl)pyrazin-2-yl)cyclopropyl)-1H-pyrazol-4-yl)pyrazine-2-carboxamide], the values for the IC50 against Human plasma kallikrein and on human Factor XIa were 7.8 nM and more than 10000 nM, respectively.

`CCc1nc(C(C)n2cc(NC(=O)c3cncc(-c4c(C(F)F)ccc(Cl)c4F)n3)cn2)cnc1N1C[C@H]2C[C@H]2C1=O` (single isomer, unassigned) [Example 55, 6-(3-Chloro-6-(difluoromethyl)-2-fluorophenyl)-N-(1-((S or R)-1-(6-ethyl-5-((1R,5S)-2-oxo-3-azabicyclo[3.1.0]hexan-3-yl)pyrazin-2-yl)ethyl)-1H-pyrazol-4-yl)pyrazine-2-carboxamide]: the IC50 at Human plasma kallikrein turned out to be 5.8 nM; on human Factor XIa, 5360 nM.

These data come from patent US20230286958A1, “PLASMA KALLIKREIN INHIBITORS” (Merck Sharp & Dohme LLC, priority 2020, published 2023).
